# Test results: patent publication US20240109917A1 (ACTELION PHARMACEUTICALS LTD, priority 2020, published 2024)
# Assays:
# [1] = target: His6-TEV-PDGFRβ (557-1016) (Homo sapiens (Human), UniProt P09619); assay: PDGFRβ HTRF Assay; assay type: biochemical; conditions: read-out: PDGFR HTRF IC50
# Summary of the method: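 HTRF KinEASE-TK readout (665/620 nm ratio) of TK-biotin substrate phosphorylation by His-tagged PDGFRβ kinase domain. Enzyme and inhibitor preincubated 30 min, then ATP/substrate added for 3 h at room temperature before 60 min EDTA quench/detection.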
# [2] = target: VEGFR2, unphosphorylated (Homo sapiens (Human), UniProt P35968); assay: VEGFR ADP GLO Assay; assay type: biochemical
# VEGFR2, unphosphorylated, sequence (P35968 20-1356): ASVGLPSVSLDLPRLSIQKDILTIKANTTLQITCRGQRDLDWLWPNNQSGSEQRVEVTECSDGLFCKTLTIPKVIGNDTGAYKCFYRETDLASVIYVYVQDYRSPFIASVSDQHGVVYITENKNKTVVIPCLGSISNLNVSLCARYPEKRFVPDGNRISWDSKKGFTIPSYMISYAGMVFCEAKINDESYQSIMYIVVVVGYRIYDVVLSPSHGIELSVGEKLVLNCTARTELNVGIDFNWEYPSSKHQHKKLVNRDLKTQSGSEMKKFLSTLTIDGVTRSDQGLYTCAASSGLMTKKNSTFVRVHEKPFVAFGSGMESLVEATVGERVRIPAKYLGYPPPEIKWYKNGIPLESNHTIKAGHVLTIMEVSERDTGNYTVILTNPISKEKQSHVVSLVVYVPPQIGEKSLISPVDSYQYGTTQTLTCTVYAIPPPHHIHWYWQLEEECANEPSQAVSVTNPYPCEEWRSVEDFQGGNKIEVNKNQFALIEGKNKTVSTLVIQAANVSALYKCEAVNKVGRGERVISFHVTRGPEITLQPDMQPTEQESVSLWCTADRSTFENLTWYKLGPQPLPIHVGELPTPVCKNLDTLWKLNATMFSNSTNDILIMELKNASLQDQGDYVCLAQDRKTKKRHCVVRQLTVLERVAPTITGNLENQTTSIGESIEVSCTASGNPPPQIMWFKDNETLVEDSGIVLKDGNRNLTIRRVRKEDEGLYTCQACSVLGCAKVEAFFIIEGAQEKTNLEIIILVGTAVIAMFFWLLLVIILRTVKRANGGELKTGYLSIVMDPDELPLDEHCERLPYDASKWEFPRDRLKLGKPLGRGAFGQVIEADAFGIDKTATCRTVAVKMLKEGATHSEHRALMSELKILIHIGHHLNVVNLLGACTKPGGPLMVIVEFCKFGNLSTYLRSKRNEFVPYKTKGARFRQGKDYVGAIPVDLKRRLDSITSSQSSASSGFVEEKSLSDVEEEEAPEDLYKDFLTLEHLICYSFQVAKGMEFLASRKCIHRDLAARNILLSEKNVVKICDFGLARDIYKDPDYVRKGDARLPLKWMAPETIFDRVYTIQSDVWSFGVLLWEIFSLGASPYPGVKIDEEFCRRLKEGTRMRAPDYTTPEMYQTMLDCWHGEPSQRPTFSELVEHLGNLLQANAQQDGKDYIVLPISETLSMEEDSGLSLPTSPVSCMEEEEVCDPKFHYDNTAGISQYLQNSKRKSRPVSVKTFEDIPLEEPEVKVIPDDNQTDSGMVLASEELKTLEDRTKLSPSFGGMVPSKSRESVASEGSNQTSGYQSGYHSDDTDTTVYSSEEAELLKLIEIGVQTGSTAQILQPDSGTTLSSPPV
# His6-TEV-PDGFRβ (557-1016), sequence (P09619 557-1016): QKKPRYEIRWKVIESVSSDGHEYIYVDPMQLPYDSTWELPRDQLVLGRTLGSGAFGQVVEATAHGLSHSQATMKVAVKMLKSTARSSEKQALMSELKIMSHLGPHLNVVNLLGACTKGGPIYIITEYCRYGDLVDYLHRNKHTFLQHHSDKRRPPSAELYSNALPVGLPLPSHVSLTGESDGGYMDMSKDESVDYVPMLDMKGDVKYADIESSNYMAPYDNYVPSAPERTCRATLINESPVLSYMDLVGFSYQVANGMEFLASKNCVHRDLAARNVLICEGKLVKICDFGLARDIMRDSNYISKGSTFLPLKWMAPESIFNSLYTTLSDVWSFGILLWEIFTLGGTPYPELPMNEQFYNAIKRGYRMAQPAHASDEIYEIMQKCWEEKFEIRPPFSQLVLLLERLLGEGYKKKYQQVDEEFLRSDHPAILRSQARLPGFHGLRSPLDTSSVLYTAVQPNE
Compound,IC50 [1] [nM],IC50 [2] [nM]
"Cc1ncc(NC(=O)CN2CCCCC23CC3)cc1NC(=O)c1cnn2cc(-c3cnn(CCO)c3)sc12 [Example 86, N-(5-(2-(4-azaspiro[2.5]octan-4-yl)acetamido)-2-methylpyridin-3-yl)-2-(1-(2-hydroxyethyl)-1H-pyrazol-4-yl)pyrazolo[5,1-b]thiazole-7-carboxamide]",1.3,> 7500
"Cc1ncc(NC(=O)CN2Cc3ccncc3C2)cc1NC(=O)c1cnn2cc(-c3cnn(C)c3)sc12 [Example 77, N-(5-(2-(1H-pyrrolo[3,4-c]pyridin-2 (3H)-yl)acetamido)-2-methylpyridin-3-yl)-2-(1-methyl-1H-pyrazol-4-yl)pyrazolo[5,1-b]thiazole-7-carboxamide]",1.8,> 7500
"COCCn1cc(-c2cn3ncc(C(=O)Nc4cc(NC(=O)C[C@H]5CCCN5C(C)C)cnc4C)c3s2)cn1 [Example 485, (R)—N-(5-(2-(1-isopropylpyrrolidin-2-yl)acetamido)-2-methylpyridin-3-yl)-2-(1-(2-methoxyethyl)-1H-pyrazol-4-yl)pyrazolo[5,1-b]thiazole-7-carboxamide]",0.8,> 7500
"Cc1ncc(NC(=O)CCN2CC3CCC2CC3)cc1NC(=O)c1cnn2cc(-c3cnn(C)c3)sc12 [Example 43, N-(5-(3-(2-azabicyclo[2.2.2]octan-2-yl)propanamido)-2-methylpyridin-3-yl)-2-(1-methyl-1H-pyrazol-4-yl)pyrazolo[5,1-b]thiazole-7-carboxamide]",0.23,> 7500
"COCCn1cc(-c2cn3ncc(C(=O)Nc4cc(NC(=O)C5(CN6CCCC6(C)C)CC5)cnc4C)c3s2)cn1 [Example 487, N-(5-(1-((2,2-dimethylpyrrolidin-1-yl)methyl)cyclopropane-carboxamido)-2-methylpyridin-3-yl)-2-(1-(2-methoxyethyl)-1H-pyrazol-4-yl)pyrazolo[5,1-b]thiazole-7-carboxamide]",7.7,> 7500
"Cc1ncc(NC(=O)CN2CCc3c(cnn3C)C2)cc1NC(=O)c1cnn2cc(-c3cnn(C)c3)sc12 [Example 57, 2-(1-methyl-1H-pyrazol-4-yl)-N-(2-methyl-5-(2-(1-methyl-6,7-dihydro-1H-pyrazolo[4,3-c]pyridin-5 (4H)-yl)acetamido)pyridin-3-yl)pyrazolo[5,1-b]thiazole-7-carboxamide]",1,> 7500
"Cc1ncc(NC(=O)CN2CCOC[C@H]2C)cc1NC(=O)c1cnn2cc(-c3cnn(C)c3)sc12 [Example 50, (R)-2-(1-methyl-1H-pyrazol-4-yl)-N-(2-methyl-5-(2-(3-methylmorpholino)acetamido)pyridin-3-yl)pyrazolo[5,1-b]thiazole-7-carboxamide]",0.6,> 7500
"Cc1ncc(NC(=O)CN2CCC3(CC2)COC3)cc1NC(=O)c1cnn2cc(-c3cnn(C)c3)sc12 [Example 46, N-(5-(2-(2-oxa-7-azaspiro[3.5]nonan-7-yl)acetamido)-2-methylpyridin-3-yl)-2-(1-methyl-1H-pyrazol-4-yl)pyrazolo[5,1-b]thiazole-7-carboxamide]",3,> 7500
"Cc1ncc(NC(=O)CN2C[C@H](C)O[C@@H](C)C2)cc1NC(=O)c1cnn2cc(-c3cnn(C)c3)sc12 [Example 52, N-(5-(2-((2S,6S)-2,6-dimethylmorpholino)acetamido)-2-methylpyridin-3-yl)-2-(1-methyl-1H-pyrazol-4-yl)pyrazolo[5,1-b]thiazole-7-carboxamide]",0.3,> 7500
"Cc1ncc(NC(=O)CN2CCOCC2(C)C)cc1NC(=O)c1cnn2cc(-c3cnn(C)c3)sc12 [Example 68, N-(5-(2-(3,3-dimethylmorpholino)acetamido)-2-methylpyridin-3-yl)-2-(1-methyl-1H-pyrazol-4-yl)pyrazolo[5,1-b]thiazole-7-carboxamide]",0.8,> 7500
"Cc1ncc(NC(=O)CN2CCc3ncccc3C2)cc1NC(=O)c1cnn2cc(-c3cnn(C)c3)sc12 [Example 63, N-(5-(2-(7,8-dihydro-1,6-naphthyridin-6 (5H)-yl)acetamido)-2-methylpyridin-3-yl)-2-(1-methyl-1H-pyrazol-4-yl)pyrazolo[5,1-b]thiazole-7-carboxamide]",2.9,> 7500
"Cc1ncc(NC(=O)CN2CCCC23CC3)cc1NC(=O)c1cnn2cc(-c3cnn(CCO)c3)sc12 [Example 87, N-(5-(2-(4-azaspiro[2.4]heptan-4-yl)acetamido)-2-methylpyridin-3-yl)-2-(1-(2-hydroxyethyl)-1H-pyrazol-4-yl)pyrazolo[5,1-b]thiazole-7-carboxamide]",0.4,> 7500
"Cc1ncc(NC(=O)OC[C@@H]2CCCN2C)cc1NC(=O)c1cnn2cc(-c3cn(C)nc3C)sc12 [Example 496, (S)-(1-methylpyrrolidin-2-yl)methyl (5-(2-(1,3-dimethyl-1H-pyrazol-4-yl)pyrazolo[5,1-b]thiazole-7-carboxamido)-6-methylpyridin-3-yl)carbamate]",0.3,> 7500
"Cc1ncc(NC(=O)CN2CCOCC2)cc1NC(=O)c1cnn2cc(-c3cnn(C)c3)sc12 [Example 55, 2-(1-methyl-1H-pyrazol-4-yl)-N-(2-methyl-5-(2-morpholinoacetamido)pyridin-3-yl)pyrazolo[5,1-b]thiazole-7-carboxamide]",1.5,> 7500
"COCC1CCCN1CC(=O)Nc1cnc(C)c(NC(=O)c2cnn3cc(-c4cnn(C)c4)sc23)c1 (centres unmarked) [Example 79, N-(5-(2-(2-(methoxymethyl)pyrrolidin-1-yl)acetamido)-2-methylpyridin-3-yl)-2-(1-methyl-1H-pyrazol-4-yl)pyrazolo[5,1-b]thiazole-7-carboxamide]",0.8,> 7500
"Cc1ncc(NC(=O)CN2[C@H](C)COC[C@H]2C)cc1NC(=O)c1cnn2cc(-c3cnn(C)c3)sc12 [Example 51, N-(5-(2-((3R,5R)-3,5-dimethylmorpholino)acetamido)-2-methylpyridin-3-yl)-2-(1-methyl-1H-pyrazol-4-yl)pyrazolo[5,1-b]thiazole-7-carboxamide]",0.4,> 7500
"Cc1ncc(NC(=O)CNCC(C)C)cc1NC(=O)c1cnn2cc(-c3cnn4c3CCC4)sc12 [Example 493, 2-(5,6-dihydro-4H-pyrrolo[1,2-b]pyrazol-3-yl)-N-(5-(2-(isobutylamino)acetamido)-2-methylpyridin-3-yl)pyrazolo[5,1-b]thiazole-7-carboxamide]",0.2,> 7500
"Cc1ncc(NC(=O)CNC2(C)CCC2)cc1NC(=O)c1cnn2cc(-c3cnn4c3OCCC4)sc12 [Example 495, 2-(6,7-dihydro-5H-pyrazolo[5,1-b][1,3]oxazin-3-yl)-N-(2-methyl-5-(2-((1-methylcyclobutyl)amino)acetamido)pyridin-3-yl)pyrazolo[5,1-b]thiazole-7-carboxamide]",0.3,> 7500
"Cc1ncc(NC(=O)CN2CCC2(C)C)cc1NC(=O)c1cnn2cc(-c3cnn(C)c3)sc12 [Example 82, N-(5-(2-(2,2-dimethylazetidin-1-yl)acetamido)-2-methylpyridin-3-yl)-2-(1-methyl-1H-pyrazol-4-yl)pyrazolo[5,1-b]thiazole-7-carboxamide]",1.6,> 7500
"COCCn1cc(-c2cn3ncc(C(=O)Nc4cc(NC(=O)CCN5CCC6(CCC6)C5)cnc4C)c3s2)cn1 [Example 90, N-(5-(3-(6-azaspiro[3.4]octan-6-yl)propanamido)-2-methylpyridin-3-yl)-2-(1-(2-methoxyethyl)-1H-pyrazol-4-yl)pyrazolo[5,1-b]thiazole-7-carboxamide]",0.5,> 2500
"Cc1ncc(NC(=O)CN2CCCOCC2)cc1NC(=O)c1cnn2cc(-c3cnn(C)c3)sc12 [Example 80, N-(5-(2-(1,4-oxazepan-4-yl)acetamido)-2-methylpyridin-3-yl)-2-(1-methyl-1H-pyrazol-4-yl)pyrazolo[5,1-b]thiazole-7-carboxamide]",1.4,> 7500
"Cc1ncc(NC(=O)CCN2CCCC2(C)C)cc1NC(=O)c1cnn2cc(-c3cnn(CCO)c3)sc12 [Example 88, N-(5-(3-(2,2-dimethylpyrrolidin-1-yl)propanamido)-2-methylpyridin-3-yl)-2-(1-(2-hydroxyethyl)-1H-pyrazol-4-yl)pyrazolo[5,1-b]thiazole-7-carboxamide]",0.4,> 7500
"Cc1ncc(NC(=O)CN2CCO[C@@H](C)C2)cc1NC(=O)c1cnn2cc(-c3cnn(C)c3)sc12 [Example 64, (S)-2-(1-methyl-1H-pyrazol-4-yl)-N-(2-methyl-5-(2-(2-methylmorpholino)acetamido)pyridin-3-yl)pyrazolo[5,1-b]thiazole-7-carboxamide]",0.4,> 7500
"COCCn1cc(-c2cn3ncc(C(=O)Nc4cc(NC(=O)CCN5C[C@@H]6CC[C@H]5C6)cnc4C)c3s2)cn1 [Example 92, N-(5-(3-((1S,4R)-2-azabicyclo[2.2.1]heptan-2-yl)propanamido)-2-methylpyridin-3-yl)-2-(1-(2-methoxyethyl)-1H-pyrazol-4-yl)pyrazolo[5,1-b]thiazole-7-carboxamide]",0.5,> 7500
"Cc1ncc(NC(=O)CN2CCC(F)(F)C2)cc1NC(=O)c1cnn2cc(-c3cnn(C)c3)sc12 [Example 73, N-(5-(2-(3,3-difluoropyrrolidin-1-yl)acetamido)-2-methylpyridin-3-yl)-2-(1-methyl-1H-pyrazol-4-yl)pyrazolo[5,1-b]thiazole-7-carboxamide]",0.3,> 7500
